Assay results: US7091033B2, “Array of toxicologically relevant canine genes and uses thereof” (Phase-1 Molecular Toxicology, Inc., priority 2000, dated 2006)
Like-named read-outs stand apart in the source and are kept apart here.

Columns and labels:
Format in all cases: in vivo
[1] = tested on: Cytochrome P450 2B (gene expression); assay: Canine array gene expression profile of liver from dog dosed with erythromycin estolate; conditions: dog, liver, 100 mg/kg
Protocol: (§1) For liver or kidney, about 0.15-0.20 g of tissue was weighed and placed in a 15 ml conical tube. All tissue were kept on dry ice when other samples were being weighed.
(§2) About 3.8 ml of RLT buffer was added to the tube containing the sample. The RLT buffer® from Qiagen can be prepared beforehand by adding 10 μl betamercaptoethanol to each 1.0 ml of lysis buffer needed. The tissue was homogenized using the rotor-stator homogenizer for 45 seconds. A IKA Ultra Turrax T25 homogenizer set at speed 4 with the S25N-10G dispersing element can be used. Alternatively, a Virtishear Cyclone 750W rotor/stator homogenizer (Virtis item #278077) can be used with the 7 mm microfine sawtooth shaft and generator (195 mm long with a processing range of 0.25 ml to 20 ml, item #372718). After homogenization, samples were stored on ice until all samples were homogenized. To clean the homogenizing tip between samples, the tip was first run for a few seconds in 95% ethanol and then rinsed by squirting with fresh 95% ethanol. This process was repeated with nanopure water.
(§3) The tissue lysate was centrifuged at room temperature for 10 minutes at 3700-3800 rpm in a Beckman GS-6 (or equivalent) centrifuge to remove nuclei thus reducing DNA contamination.
(§4) The supernatant of the lysate was transferred to a clean 15 ml conical tubes containing an equal volume of 70% EtOH in DEPC treated H2O, being careful not to include any of the pellet or fatty layer and mixed. About 3.8 ml of sample was added to the RNeasy spin column placed in a 15 ml centrifuge tube and centrifuged at 3000×g (3690-3710 rpm, Beckman GS-6) for 5 min. The flow-through was discarded. The remaining sample was added to the appropriate column and spun at 3000×g for 5 minutes and the flow-through was discarded.
(§5) About 4.0 ml of Buffer RW1 (Qiagen®) was added to the column and spun as before then about 2.5 ml of buffer RPE (Qiagen®) was added to column and spun at 3000×g (3690-3710 rpm, Beckman GS-6) for 2 minutes. In this example, RPE buffer was supplied as a concentrate so 4 volumes of 95% EtOH was added before use. For the midi kit, about 220 ml of 95% EtOH would be added to 55 ml of RPE. Another 2.5 ml of buffer RPE was added and spun for 5 minutes to also dry out column. The column, including the tip, should be dry for the next elution step.
(§6) For elution, the column that has the RNA bound to a clean 15 ml tube was transferred and 200 μl of RNase-free water was added to the column, allowed to sit for 1 minute, and spun for 3 minutes at 3000×g (3690-3710 rpm, Beckman GS6). This step was repeated into the same tube but with 200 μl RNase-free water.
(§7) Liver and kidney organs were isolated from a dog which was dosed with erythromycin esolate at 100 mg/kg/day for 2 or 10 days. The dog was euthanized 16 hours after the last dosage and the organs were harvested according to standard sterile procedure. RNA was isolated from the kidney and liver as detailed in Example 1. cDNA was made from the RNA and used as probes as detailed in the Examples above.

[2] = tested on: Cytochrome P450 2C21 (gene expression); assay: as above; conditions: dog, liver, 100 mg/kg
Protocol: as §1, §2, §3, §4, §5, §6, §7

[3] = tested on: Cytochrome P450 2D (gene expression); assay: as above; conditions: dog, liver, 100 mg/kg
Protocol: as §1, §2, §3, §4, §5, §6, §7

Cytochrome P450 2C21 = assay: Canine array gene expression profile of kidney from dog dosed with erythromycin estolate; conditions: dog, kidney, 100 mg/kg
Protocol: as §1, §2, §3, §4, §5, §6, §7

Cytochrome P450 2C41 = assay: as above; conditions: dog, kidney, 100 mg/kg
Protocol: as §1, §2, §3, §4, §5, §6, §7

[4] = tested on: Cytochrome P450 2D (gene expression); assay: as above; conditions: dog, kidney, 100 mg/kg
Protocol: as §1, §2, §3, §4, §5, §6, §7

Cytochrome P450 3A = assay: as above; conditions: dog, kidney, 100 mg/kg
Protocol: as §1, §2, §3, §4, §5, §6, §7

Glucose transporter = assay: as above; conditions: dog, kidney, 100 mg/kg
Protocol: as §1, §2, §3, §4, §5, §6, §7

[5] = tested on: Glutathione S-transferase alpha subunit; assay: as above; conditions: dog, kidney, 100 mg/kg
Protocol: as §1, §2, §3, §4, §5, §6, §7

[6] = tested on: Multidrug resistant protein-1; assay: as above; conditions: dog, kidney, 100 mg/kg
Protocol: as §1, §2, §3, §4, §5, §6, §7

[7] = tested on: canine kidney gene expression; assay: as above; conditions: Canis lupus familiaris, 240 h, 10 days
Protocol: as §1, §2, §3, §4, §5, §6, §7

## CCC(=O)O[C@H]1[C@H](O[C@@H]2[C@@H](C)[C@H](O[C@H]3C[C@@](C)(OC)[C@@H](O)[C@H](C)O3)[C@@H](C)C(=O)O[C@H](CC)[C@@](C)(O)[C@H](O)[C@@H](C)C(=O)[C@H](C)C[C@@]2(C)O)O[C@H](C)C[C@@H]1N(C)C [erythromycin estolate]
[1]
  fold induction at 10 days: 1.9
[2]
  fold induction at 10 days: 1.3
[3]
  fold induction at 10 days: 1.1
Cytochrome P450 2C21
  fold induction at 10 days: 1.1
Cytochrome P450 2C41
  fold induction at 10 days: 1.2
[4]
  fold induction at 10 days: 1.1
Cytochrome P450 3A
  fold induction at 10 days: 1.3
Glucose transporter
  fold induction at 10 days: 1.1
[5]
  fold induction at 10 days: 1.1
[6]
  fold induction at 10 days: 1.2
[7]; read-out: Alkaline phosphatase fold induction
  fold induction at 100 mg/kg: 1.6
[7]; read-out: Angiopoietin-related protein 3 (ANGPTL3) fold induction
  fold induction at 100 mg/kg: 1
[7]; read-out: BRCA1 fold induction
  fold induction at 100 mg/kg: 1.2
[7]; read-out: Beta-glucuronidase fold induction
  fold induction at 100 mg/kg: 1.1
[7]; read-out: Catalase fold induction
  fold induction at 100 mg/kg: 1.2
[7]; read-out: Caveolin-1 fold induction
  fold induction at 100 mg/kg: 1
[7]; read-out: Caveolin-2 fold induction
  fold induction at 100 mg/kg: 1.6
[7]; read-out: Cubilin fold induction
  fold induction at 100 mg/kg: 1.1
[7]; read-out: Cytochrome c oxidase subunit VIIaL fold induction
  fold induction at 100 mg/kg: 1
[7]; read-out: Decorin fold induction
  fold induction at 100 mg/kg: 1.1
[7]; read-out: FGFR2 fold induction
  fold induction at 100 mg/kg: 1.1
[7]; read-out: GRP94 fold induction
  fold induction at 100 mg/kg: 1.1
[7]; read-out: Gadd45 fold induction
  fold induction at 100 mg/kg: 1
[7]; read-out: Glucose-regulated protein 94 #1 fold induction
  fold induction at 100 mg/kg: 1.4
[7]; read-out: N-cadherin fold induction
  fold induction at 100 mg/kg: 1.1
[7]; read-out: Phase-1 CCT-4 fold induction
  fold induction at 100 mg/kg: 1.1
[7]; read-out: Phase-1 CCT-8 fold induction
  fold induction at 100 mg/kg: 1.1
[7]; read-out: Phase-1 CCT-12 fold induction
  fold induction at 100 mg/kg: 1.1
[7]; read-out: Phase-1 CCT-13 fold induction
  fold induction at 100 mg/kg: 1
[7]; read-out: Phase-1 CCT-14 fold induction
  fold induction at 100 mg/kg: 1
[7]; read-out: Phase-1 CCT-16 fold induction
  fold induction at 100 mg/kg: 1
[7]; read-out: Phase-1 CCT-17 fold induction
  fold induction at 100 mg/kg: 1
[7]; read-out: Phase-1 CCT-18 fold induction
  fold induction at 100 mg/kg: 1.2
[7]; read-out: Phase-1 CCT-19 fold induction
  fold induction at 100 mg/kg: 1.2
[7]; read-out: Phase-1 CCT-27 fold induction
  fold induction at 100 mg/kg: 1.4
[7]; read-out: Phase-1 CCT-30 fold induction
  fold induction at 100 mg/kg: 1.3
[7]; read-out: Phase-1 CCT-31 fold induction
  fold induction at 100 mg/kg: 1.1
[7]; read-out: Phase-1 CCT-32 fold induction
  fold induction at 100 mg/kg: 1.1
[7]; read-out: Phase-1 CCT-33 fold induction
  fold induction at 100 mg/kg: 1.1
[7]; read-out: Phase-1 CCT-34 fold induction
  fold induction at 100 mg/kg: 1.1
[7]; read-out: Phase-1 CCT-36 fold induction
  fold induction at 100 mg/kg: 1
[7]; read-out: Phase-1 CCT-40 fold induction
  fold induction at 100 mg/kg: 1.2
[7]; read-out: Phase-1 CCT-41 fold induction
  fold induction at 100 mg/kg: 1.2
[7]; read-out: Phase-1 CCT-42 fold induction
  fold induction at 100 mg/kg: 1.1
[7]; read-out: Phase-1 CCT-43 fold induction
  fold induction at 100 mg/kg: 1.2
[7]; read-out: Phase-1 CCT-49 fold induction
  fold induction at 100 mg/kg: 1
[7]; read-out: Phase-1 CCT-50 fold induction
  fold induction at 100 mg/kg: 1.1
[7]; read-out: Phase-1 CCT-51 fold induction
  fold induction at 100 mg/kg: 1.2
[7]; read-out: Phase-1 CCT-52 fold induction
  fold induction at 100 mg/kg: 1.1
[7]; read-out: Phase-1 CCT-53 fold induction
  fold induction at 100 mg/kg: 1
[7]; read-out: Phase-1 CCT-55 fold induction
  fold induction at 100 mg/kg: 1.1
[7]; read-out: Phase-1 CCT-56 fold induction
  fold induction at 100 mg/kg: 1.1
[7]; read-out: Phase-1 CCT-58 fold induction
  fold induction at 100 mg/kg: 1.5
[7]; read-out: Phase-1 CCT-59 fold induction
  fold induction at 100 mg/kg: 1
[7]; read-out: Phase-1 CCT-60 fold induction
  fold induction at 100 mg/kg: 1.1
[7]; read-out: Phase-1 CCT-62 fold induction
  fold induction at 100 mg/kg: 1.1
[7]; read-out: Phase-1 CCT-65 fold induction
  fold induction at 100 mg/kg: 1.1
[7]; read-out: Phase-1 CCT-66 fold induction
  fold induction at 100 mg/kg: 1.1
[7]; read-out: Phase-1 CCT-73 fold induction
  fold induction at 100 mg/kg: 1.1
[7]; read-out: Phase-1 CCT-76 fold induction
  fold induction at 100 mg/kg: 1
[7]; read-out: Phase-1 CCT-82 fold induction
  fold induction at 100 mg/kg: 1
[7]; read-out: Phase-1 CCT-84 fold induction
  fold induction at 100 mg/kg: 1.1
[7]; read-out: Phase-1 CCT-87 fold induction
  fold induction at 100 mg/kg: 1.2
[7]; read-out: Phase-1 CCT-88 fold induction
  fold induction at 100 mg/kg: 1.2
[7]; read-out: Phase-1 CCT-89 fold induction
  fold induction at 100 mg/kg: 1.1
[7]; read-out: Phase-1 CCT-91 fold induction
  fold induction at 100 mg/kg: 1.1
[7]; read-out: Phase-1 CCT-93 fold induction
  fold induction at 100 mg/kg: 1
[7]; read-out: Proliferating cell nuclear antigen gene fold induction
  fold induction at 100 mg/kg: 1.1
[7]; read-out: Prostaglandin D synthase fold induction
  fold induction at 100 mg/kg: 1.2
[7]; read-out: Rab2 fold induction
  fold induction at 100 mg/kg: 1.2
[7]; read-out: Rab5 fold induction
  fold induction at 100 mg/kg: 1.1
[7]; read-out: Rab7 fold induction
  fold induction at 100 mg/kg: 1.4
[7]; read-out: Superoxide dismutase Mn fold induction
  fold induction at 100 mg/kg: 1.1
[7]; read-out: TFCOUP-related (probable steroid hormone receptor) fold induction
  fold induction at 100 mg/kg: 1.1
[7]; read-out: TPRD fold induction
  fold induction at 100 mg/kg: 1.1
[7]; read-out: UV excision repair protein RAD 23 (XP-C) fold induction
  fold induction at 100 mg/kg: 1.2
[7]; read-out: c-erb B-2 fold induction
  fold induction at 100 mg/kg: 1.4
[7]; read-out: p53 fold induction
  fold induction at 100 mg/kg: 1.4
[7]; iv, read-out: ZAP36/annexin IV fold induction
  fold induction at 100 mg/kg: 1.6
